Source: PubChem BioAssay AID2060512 (Molecular Pharmacology Branch, DTP, NCI, 2025)

Tested on: 186277-243-T-J2-PDC complex spheroid viability
Assay: Anticancer human tumor 186277-243-T-J2-PDC patient-derived colon adenocarcinoma cell line growth inhibition [GQUAD]
Details: for IC50: curve of first compound; for viability, T/C: stronger effect = lower value
From the text: DNA G-quadruplex Stabilizer Agents in Combinations in Complex Spheroids
A high-throughput screen of multi-cell type tumor spheroids was designed to identify active combinations of DNA G-quadruplex stabilizer agents and targeted small molecules. Complex spheroids include a stromal component modeled by human endothelial cells (HUVEC) and fibroblasts modeled by human mesenchymal stem cells (MSCs). The concentration ranges selected for each drug and investigational agent were based upon clinically achievable concentrations if the clinical Cmax of the agent was known.
Compounds. The drugs and investigational agents: pidnarulex (CX-5461; NSC782164), APTO-253 (NSC789042), BRACO-19 (NSC847499), peposertib (NSC802822), ceralasertib (NSC780249), elimusertib (NSC800525), camonsertib (NSC841442), AZD-1390 (NSC803789), olaparib (NSC753686), talazoparib (NSC767125), ART-558 (NSC835418), sotorasib (NSC818433), MRTX-1133 (NSC836407), SN-38 (NSC673596), topotecan (NSC609699), etoposide (NSC141540), doxorubicin (NSC123127), gemcitabine (NSC613327), 5-fluorouracil (NSC19893), paclitaxel (NSC125973), vemurafenib (NSC761431), panobinostat (NSC761190), R-306465 (JNJ-16241199; NSC773264), adavosertib (NSC754352), TP-3654 (NSC805149), carboplatin (NSC241240), KSQ-4279 (NSC840948), and staurosporine (NSC755774) were obtained from the National Cancer Institute (NCI) Developmental Therapeutics Program Chemical Repository (34). The FDA-approved anticancer drug set is available from the NCI Developmental Therapeutics Program. […] The stock solutions were prepared in dimethyl sulfoxide (DMSO, Sigma-Aldrich, St. Louis, MO, cat. D2650) at 800-fold the tested concentration and stored at -70 degrees C prior to their use. All drugs and investigational agents were tested over a range starting from a high concentration at or near the clinical Cmax and decreasing in half-log increments. If the clinical Cmax for an agent had not been determined, the highest concentration tested was 10 microM.
2.3 Cell Culture. All cells were maintained in an incubator at 37 degrees C and 5% CO2 with 95% humidity. The PDC lines were cultured according to standard operating procedures established by the NCI PDMR. All PDCs were thawed and cultured in Matrigel-coated flasks prepared with a working solution of 1X Ham's F-12 nutrient mix, without supplementation (Invitrogen, cat. 11765054), 100 U/mL penicillin-streptomycin (Invitrogen, cat. 15140122), and 2.5% Matrigel (Corning Inc., cat. 354248) for the first three passages. The 857933-349-R-J2-PDC line was cultured in 6C/Colon 1B media, which includes advanced DMEM/F-12 (Thermo Fisher Scientific, cat. 12634028), 10 mM HEPES (Thermo Fisher Scientific, cat. 15630080), 1X GlutaMAX supplement (Thermo Fisher Scientific, cat. 35050061), 0.1 mg/mL primocin (InvivoGen, cat. ant-pm-2), 10% defined fetal bovine serum, heat inactivated (HyClone Laboratories Inc., cat. SH30070.03HI), 50% L-WRN conditioned media (ATCC, cat. CRL-3276), 1.25 mM N-Acetyl-L-cysteine (Sigma-Aldrich, cat. A9165), 10 mM nicotinamide (Sigma-Aldrich, cat. N0636), 1X B-27 supplement (Thermo Fisher Scientific, cat. 17504044), 1X N-2 supplement (Thermo Fisher Scientific, cat. 17502048), 10 microM Y-27632 dihydrochloride (Tocris Bioscience, cat. 1254), and 50 ng/mL human EGF recombinant protein (Thermo Fisher Scientific, cat. PHG0311). The 485176-168-R4-J1-PDC line was cultured in Panc media, which includes all 6C/Colon 1B media components plus 100 ng/mL human FGF-10 (Thermo Fisher Scientific, cat. 100-26), 500 nM SB-431542 (Selleckchem, cat. S1067), and gastrin (Tocris, cat. 3006).
[…]

[1] = second compound 0.0316 µM, first compound 0.0316 µM
[2] = second compound 0.0316 µM, first compound 0.1 µM
[3] = second compound 0.0316 µM, first compound 0.316 µM
[4] = second compound 0.0316 µM, first compound 1 µM
[5] = second compound 0.0316 µM, first compound 3.16 µM
[6] = second compound 0.0316 µM, first compound 10 µM
[7] = second compound 0.1 µM, first compound 0.0316 µM
[8] = second compound 0.1 µM, first compound 0.1 µM
[9] = second compound 0.1 µM, first compound 0.316 µM
[10] = second compound 0.1 µM, first compound 1 µM
[11] = second compound 0.1 µM, first compound 3.16 µM
[12] = second compound 0.1 µM, first compound 10 µM
[13] = second compound 0.316 µM, first compound 0.0316 µM
[14] = second compound 0.316 µM, first compound 0.1 µM
[15] = second compound 0.316 µM, first compound 0.316 µM
[16] = second compound 0.316 µM, first compound 1 µM
[17] = second compound 0.316 µM, first compound 3.16 µM
[18] = second compound 0.316 µM, first compound 10 µM
[19] = second compound 1 µM, first compound 0.0316 µM
[20] = second compound 1 µM, first compound 0.1 µM
[21] = second compound 1 µM, first compound 0.316 µM
[22] = second compound 1 µM, first compound 1 µM
[23] = second compound 1 µM, first compound 3.16 µM
[24] = second compound 1 µM, first compound 10 µM
[25] = second compound 3.16 µM, first compound 0.0316 µM
[26] = second compound 3.16 µM, first compound 0.1 µM
[27] = second compound 3.16 µM, first compound 0.316 µM
[28] = second compound 3.16 µM, first compound 1 µM
[29] = second compound 3.16 µM, first compound 3.16 µM
[30] = second compound 3.16 µM, first compound 10 µM
[31] = second compound 10 µM, first compound 0.0316 µM
[32] = second compound 10 µM, first compound 0.1 µM
[33] = second compound 10 µM, first compound 0.316 µM
[34] = second compound 10 µM, first compound 1 µM
[35] = second compound 10 µM, first compound 3.16 µM
[36] = second compound 10 µM, first compound 10 µM
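Also: spheroids exposed to drugs for 7 days.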
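For viability, T/C in this document: 100% = DMSO vehicle control viability.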

COc1cc(C2c3cc4c(cc3C(OC3OC5COC(C)OC5C(O)C3O)C3COC(=O)C23)OCO4)cc(OC)c1O (centres undefined) + CN(C)c1ccc(Nc2c3ccc(NC(=O)CCN4CCCC4)cc3nc3cc(NC(=O)CCN4CCCC4)ccc23)cc1
IC50 (second compound 0.0316 µM): 0.767 µM | IC50 (second compound 0.1 µM): 0.757 µM | IC50 (second compound 0.316 µM): 0.915 µM | IC50 (second compound 1 µM): 0.808 µM | IC50 (second compound 3.16 µM): 1.34 µM | IC50 (second compound 10 µM): 1.46 µM | viability, T/C [1]: 112% | viability, T/C [2]: 99.4% | viability, T/C [3]: 74.2% | viability, T/C [4]: 38.9% | viability, T/C [5]: 35% | viability, T/C [6]: 18.6% | viability, T/C [7]: 91.5% | viability, T/C [8]: 94.5% | viability, T/C [9]: 72.3% | viability, T/C [10]: 40.4% | viability, T/C [11]: 34.6% | viability, T/C [12]: 18.6% | viability, T/C [13]: 113% | viability, T/C [14]: 96.7% | viability, T/C [15]: 80.5% | viability, T/C [16]: 42.8% | viability, T/C [17]: 31.7% | viability, T/C [18]: 15.6% | viability, T/C [19]: 105% | viability, T/C [20]: 107% | viability, T/C [21]: 74.6% | viability, T/C [22]: 42.9% | viability, T/C [23]: 32.9% | viability, T/C [24]: 17.5% | viability, T/C [25]: 115% | viability, T/C [26]: 102% | viability, T/C [27]: 81.1% | viability, T/C [28]: 49.6% | viability, T/C [29]: 39.9% | viability, T/C [30]: 16% | viability, T/C [31]: 107% | viability, T/C [32]: 74.5% | viability, T/C [33]: 88.6% | viability, T/C [34]: 50.9% | viability, T/C [35]: 37.2% | viability, T/C [36]: 15.5%

CCCS(=O)(=O)Nc1ccc(F)c(C(=O)c2c[nH]c3ncc(-c4ccc(Cl)cc4)cc23)c1F + Cc1[nH]c2ccc(F)cc2c1-c1nc2c3cccnc3c3ncccc3c2[nH]1
IC50 (second compound 0.0316 µM): 6.01 µM | IC50 (second compound 0.1 µM): 6.44 µM | IC50 (second compound 0.316 µM): 5.92 µM | IC50 (second compound 1 µM): 6.94 µM | IC50 (second compound 3.16 µM): 5.65 µM | IC50 (second compound 10 µM): 5.28 µM | viability, T/C [1]: 109% | viability, T/C [2]: 105% | viability, T/C [3]: 99% | viability, T/C [4]: 91% | viability, T/C [5]: 86% | viability, T/C [6]: 24.1% | viability, T/C [7]: 111% | viability, T/C [8]: 107% | viability, T/C [9]: 101% | viability, T/C [10]: 103% | viability, T/C [11]: 98.5% | viability, T/C [12]: 20% | viability, T/C [13]: 111% | viability, T/C [14]: 107% | viability, T/C [15]: 104% | viability, T/C [16]: 119% | viability, T/C [17]: 82.7% | viability, T/C [18]: 22.7% | viability, T/C [19]: 89.6% | viability, T/C [20]: 107% | viability, T/C [21]: 108% | viability, T/C [22]: 115% | viability, T/C [23]: 103% | viability, T/C [24]: 25.3% | viability, T/C [25]: 110% | viability, T/C [26]: 113% | viability, T/C [27]: 97.9% | viability, T/C [28]: 95% | viability, T/C [29]: 89.8% | viability, T/C [30]: 13.7% | viability, T/C [31]: 90.2% | viability, T/C [32]: 95.9% | viability, T/C [33]: 103% | viability, T/C [34]: 98.4% | viability, T/C [35]: 82% | viability, T/C [36]: 9.98%
